In patent publication EP3046573B1, “AMYLIN ANALOGUES” (Zealand Pharma A/S, priority 2013, dated 2015):
Like-named read-outs stand apart in the source and are kept apart here. Numbered stars: 1 amine (or outer) side, 2 acyl side, 3 side chain; on linkers, the order of the positions; unused ones are H or OH. Bridge positions count the residues as written; N and C are the ends. Square brackets hold non-standard residues; d marks the D form. Peptide text beside a SMILES is read from it. * marks the point of attachment. Pro(trans-4-Ph) = O=C(O)[C@@H]1C[C@@H](c2ccccc2)CN1; C20 diacid = O=C(O)CCCCCCCCCCCCCCCCCCC(=O)*; γGlu = O=C(O)[C@H](CCC(=O)[*:2])N[*:1]; NMeI = CC[C@H](C)[C@H](NC)C(=O)O; Sar = CNCC(=O)O

What was measured:
[1] = biological target: T1, human calcitonin receptor (hCTR2) (Homo sapiens, UniProt P30988); assay: hCTR2 assay: induction of cAMP (AlphaScreen cAMP Assay kit) in COS7 cells expressing hCTR2; type: cell-based
T1 construct: expressed in transfected cells
T1 sequence (P30988 25-474): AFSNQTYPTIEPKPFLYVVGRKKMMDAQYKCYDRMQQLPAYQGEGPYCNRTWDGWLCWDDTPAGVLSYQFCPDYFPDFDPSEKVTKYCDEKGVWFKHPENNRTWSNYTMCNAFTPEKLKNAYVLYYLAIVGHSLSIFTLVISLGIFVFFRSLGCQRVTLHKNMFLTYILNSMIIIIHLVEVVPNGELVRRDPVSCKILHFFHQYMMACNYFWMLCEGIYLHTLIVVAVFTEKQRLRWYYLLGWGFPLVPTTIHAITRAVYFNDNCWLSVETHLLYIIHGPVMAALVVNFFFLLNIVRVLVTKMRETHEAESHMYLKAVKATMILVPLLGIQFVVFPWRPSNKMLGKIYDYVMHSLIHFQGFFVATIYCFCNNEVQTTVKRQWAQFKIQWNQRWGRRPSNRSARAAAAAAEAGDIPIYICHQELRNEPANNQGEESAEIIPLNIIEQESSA
Method in brief: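 Stable RAMP-naive COS7 clone expressing hCTR2 was stimulated with increasing peptide concentrations in Tyrode buffer (pH 7.4) with 100 µM IBMX and 0.1% casein for 15 min at 37° C. Cells were lysed and cAMP measured by AlphaScreen. EC50 and efficacy relative to pramlintide came from 4PL curve fits.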

[2] = biological target: T2, human amylin receptor 3 (hAMYR3) consisting of hCTR2 co-expressed with human Receptor Activity Modifying Protein 3 (hRAMP3) (Homo sapiens, UniProt O60896+P30988); assay: hAMYR3 assay: induction of cAMP (AlphaScreen cAMP Assay kit) in COS7 cells expressing hAMYR3; type: cell-based
T2 construct: expressed in transfected cells
T2 sequence (P30988 25-474): T1 sequence (P30988 25-474)
T2 sequence (O60896 24-148 partner): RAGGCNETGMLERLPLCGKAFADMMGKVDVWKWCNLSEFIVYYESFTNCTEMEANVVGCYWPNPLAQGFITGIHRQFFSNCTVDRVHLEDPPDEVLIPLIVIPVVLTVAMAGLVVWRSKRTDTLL
Text: The cell line COS7, originating from African Green Monkey kidney fibroblast cells, was used for establishment of the stable cell lines described below. The COS7 cellular background was used due to it being RAMP naive, and as such it provides the best available system for testing of the monomeric hCTR and different heterodimeric amylin receptor subtypes functionally generated by introduction of the individual RAMPs.
A cell line expressing the human amylin receptor 3 (hAMYR3) was generated in the COS7 cellular background as stable clones. In brief, hCTR2 (GI:4502547) and hRAMP3 (GI:118572586) were amplified by PCR using primers encoding terminal restriction sites for subcloning. The 5'-end primers additionally encoded a near Kozak consensus sequence to ensure efficient translation. The fidelity of the DNA encoding the receptor was confirmed by DNA sequencing. The PCR products encoding the receptor were subcloned into a proprietary tri-cistronic mammalian expression vector with RAMP3, hCTR2 and neomycin (G418) resistance marker. The mammalian expression vector encoding the receptor was transfected into COS7 cells by a standard liposome transfection method. 48 hours post-transfection, cells were seeded for limited dilution cloning and selected with 1 mg/ml G418 in the culture medium. After 3 weeks, surviving colonies of hAMY3R-expressing cells were picked, propagated and tested in the amylin efficacy assay as described in Example 3 below. The functional generation of the amylin receptor phenotype was verified in the efficacy assay by a left-shifted efficacy response to amylin relative to monomeric calcitonin receptor, and one hAMYR3-expressing clone was chosen for compound profiling.
In vitro activity of test peptides at the hCTR2 and hAMYR3 receptors was assessed by measuring the induction of cAMP following stimulation of the receptor by pramlintide or peptides of the invention using the AlphaScreen® cAMP Assay kit from Perkin-Elmer.
Briefly, COS7 cells expressing hCTR2 (see Example 2, above) were seeded at 30-40,000 cells per well in 96-well microtiter plates coated with 0.01 % poly-L-lysine, and grown for 1 day in culture in 100 µl growth medium [DMEM, 10% FCS, Penicillin (100 IU/ml), Streptomycin (100 µg/ml)]. On the day of analysis, growth medium was removed and the cells were washed once with 200 µl Tyrode buffer [Tyrode's Salts (9.6 g/l), 10 mM HEPES, pH 7.4]. Cells were incubated in 100 µl Tyrode buffer containing increasing concentrations of test peptides, 100 µM IBMX and 0.1% casein for 15 min at 37° C. The reaction was stopped by carefully decanting off the compound/buffer medium and replacing it with lysis/detection buffer (80 µl 0.1 % w/v BSA, 5 mM HEPES, 0.3 % v/v Tween-20 in deionized water). After incubation at room temperature for 10 min., the cAMP content of the resulting cell lysate was estimated according to the AlphaScreen® cAMP Assay manufacturer's instructions. EC50 values and relative efficacy values (in %) compared to reference peptide (Pramlintide) were estimated by computer-aided curve fitting using the 4-parameter logistic (4PL) non-linear model.
The in vitro activity results (expressed as EC50 values) for peptides of the invention and for Pramlintide (reference peptide) are summarized in Table 2, below.

[3] = cAMP induction in COS7 cells expressing hCTR2, average of a minimum of 3 determinations, read-out: hCTR2 EC50
[4] = cAMP induction in COS7 cells expressing hAMYR3, average of a minimum of 3 determinations, read-out: hAMY R3 EC50

EC50 [1, 3] [nM]	EC50 [2, 4] [nM]	Structure (SMILES)	EC50 [1] [nM]	EC50 [2] [nM]
0.17	0.19	CC[C@H](C)[C@@H](C(=O)N[C@@H](CC(C)C)C(=O)N[C@@H](CO)C(=O)N[C@@H](CO)C(=O)N[C@H](C(=O)N[C@@H](CC(N)=O)C(=O)N[C@H](C(=O)NCC(=O)N[C@@H](CO)C(=O)N[C@@H](CC(N)=O)C(=O)N[C@H](C(=O)N1C[C@H](c2ccccc2)C[C@H]1C(N)=O)[C@@H](C)O)C(C)C)[C@@H](C)O)N(C)C(=O)CN(C)C(=O)[C@H](Cc1ccccc1)NC(=O)[C@H](CC(N)=O)NC(=O)[C@H](CC(N)=O)NC(=O)[C@H](CO)NC(=O)[C@H](CO)NC(=O)[C@H](CCCNC(=N)N)NC(=O)[C@H](Cc1c[nH]cn1)NC(=O)[C@H](CC(C)C)NC(=O)[C@H](Cc1ccccc1)NC(=O)[C@H](CCC(=O)O)NC(=O)[C@H](C)NC(=O)[C@H](CC(C)C)NC(=O)[C@H](CCCNC(=N)N)NC(=O)[C@H](CCC(N)=O)NC(=O)[C@@H](NC(=O)[C@H](C)NC(=O)[C@@H]1CSSC[C@H](NC(=O)[C@H](CCCNC(=N)N)NC(=O)CC[C@H](NC(=O)CCCCCCCCCCCCCCCCCCC(=O)O)C(=O)O)C(=O)N[C@@H](CC(N)=O)C(=O)N[C@@H]([C@@H](C)O)C(=O)N[C@@H](C)C(=O)N[C@@H]([C@@H](C)O)C(=O)N1)[C@@H](C)O [Compound 113, [19CD]-isoGlu-RC()NTATC()ATQRLAEFLHRSSNNF-Gly(Me)-Ile(Me)-LSSTNVGSNT-Php-NH2] ({C20 diacid-γGlu}-RCNTATCATQRLAEFLHRSSNNF[Sar][NMeI]LSSTNVGSNT[Pro(trans-4-Ph)]-NH2; disulfide 2-7)	–	–
–	–	CC[C@H](C)[C@@H](C(=O)N[C@@H](CC(C)C)C(=O)N[C@@H](CO)C(=O)N[C@@H](CO)C(=O)N[C@H](C(=O)N[C@@H](CC(N)=O)C(=O)N[C@H](C(=O)NCC(=O)N[C@@H](CO)C(=O)N[C@@H](CC(N)=O)C(=O)N[C@H](C(=O)N[C@@H](CO)C(N)=O)[C@@H](C)O)C(C)C)[C@@H](C)O)N(C)C(=O)[C@H](C)NC(=O)CN(C)C(=O)[C@H](Cc1ccccc1)NC(=O)[C@H](CC(N)=O)NC(=O)[C@H](CC(N)=O)NC(=O)[C@H](CO)NC(=O)[C@H](CO)NC(=O)[C@H](CCCNC(=N)N)NC(=O)[C@H](Cc1c[nH]cn1)NC(=O)[C@H](CC(C)C)NC(=O)[C@H](Cc1ccccc1)NC(=O)[C@H](CCC(=O)O)NC(=O)[C@H](C)NC(=O)[C@H](CC(C)C)NC(=O)[C@H](CCCNC(=N)N)NC(=O)[C@H](CCC(N)=O)NC(=O)[C@@H](NC(=O)[C@H](C)NC(=O)[C@@H]1CSSC[C@H](NC(=O)[C@H](CCCNC(=N)N)NC(=O)CC[C@H](NC(=O)CCCCCCCCCCCCCCCCCCC(=O)O)C(=O)O)C(=O)N[C@@H](CC(N)=O)C(=O)N[C@@H]([C@@H](C)O)C(=O)N[C@@H](C)C(=O)N[C@@H]([C@@H](C)O)C(=O)N1)[C@@H](C)O [Compound 116, [19CD]-isoGlu-RC()NTATC()ATQRLAEFLHRSSNNF-Gly(Me)-A-Ile(Me)-LSSTNVGSNTS-NH2] ({C20 diacid-γGlu}-RCNTATCATQRLAEFLHRSSNNF[Sar]A[NMeI]LSSTNVGSNTS-NH2; disulfide 2-7)	0.93	1.6
–	–	CC[C@H](C)[C@@H](C(=O)N[C@@H](CC(C)C)C(=O)N[C@@H](CO)C(=O)N[C@@H](CO)C(=O)N[C@H](C(=O)N[C@@H](CC(N)=O)C(=O)N[C@H](C(=O)NCC(=O)N[C@@H](CO)C(=O)N[C@@H](CC(N)=O)C(=O)N[C@H](C(=O)N[C@H](C(N)=O)[C@@H](C)O)[C@@H](C)O)C(C)C)[C@@H](C)O)N(C)C(=O)[C@H](C)NC(=O)CN(C)C(=O)[C@H](Cc1ccccc1)NC(=O)[C@H](CC(N)=O)NC(=O)[C@H](CC(N)=O)NC(=O)[C@H](CO)NC(=O)[C@H](CO)NC(=O)[C@H](CCCNC(=N)N)NC(=O)[C@H](Cc1c[nH]cn1)NC(=O)[C@H](CC(C)C)NC(=O)[C@H](Cc1ccccc1)NC(=O)[C@H](CCC(=O)O)NC(=O)[C@H](C)NC(=O)[C@H](CC(C)C)NC(=O)[C@H](CCCNC(=N)N)NC(=O)[C@H](CCC(N)=O)NC(=O)[C@@H](NC(=O)[C@H](C)NC(=O)[C@@H]1CSSC[C@H](NC(=O)[C@H](CCCNC(=N)N)NC(=O)CC[C@H](NC(=O)CCCCCCCCCCCCCCCCCCC(=O)O)C(=O)O)C(=O)N[C@@H](CC(N)=O)C(=O)N[C@@H]([C@@H](C)O)C(=O)N[C@@H](C)C(=O)N[C@@H]([C@@H](C)O)C(=O)N1)[C@@H](C)O [Compound 117, [19CD]-isoGlu-RC()NTATC()ATQRLAEFLHRSSNNF-Gly(Me)-A-Ile(Me)-LSSTNVGSNTT-NH2] ({C20 diacid-γGlu}-RCNTATCATQRLAEFLHRSSNNF[Sar]A[NMeI]LSSTNVGSNTT-NH2; disulfide 2-7)	0.47	8.2
0.28	0.45	CC[C@H](C)[C@@H](C(=O)N[C@@H](CC(C)C)C(=O)N[C@@H](CO)C(=O)N[C@@H](CO)C(=O)N[C@H](C(=O)N[C@@H](CCC(=O)O)C(=O)N[C@H](C(=O)NCC(=O)N[C@@H](CO)C(=O)N[C@@H](CCC(=O)O)C(=O)N[C@H](C(=O)N1CCC[C@H]1C(N)=O)[C@@H](C)O)C(C)C)[C@@H](C)O)N(C)C(=O)[C@H](C)NC(=O)CN(C)C(=O)[C@H](Cc1ccccc1)NC(=O)[C@H](CO)NC(=O)[C@H](CO)NC(=O)[C@H](CO)NC(=O)[C@H](CO)NC(=O)[C@H](CCCNC(=N)N)NC(=O)[C@H](Cc1c[nH]cn1)NC(=O)[C@H](CC(C)C)NC(=O)[C@H](Cc1ccccc1)NC(=O)[C@H](CCC(=O)O)NC(=O)[C@H](C)NC(=O)[C@H](CC(C)C)NC(=O)[C@H](CCCNC(=N)N)NC(=O)[C@H](CCC(N)=O)NC(=O)[C@@H](NC(=O)[C@H](C)NC(=O)[C@@H]1CSSC[C@H](NC(=O)[C@H](CCCNC(=N)N)NC(=O)CC[C@H](NC(=O)CCCCCCCCCCCCCCCCCCC(=O)O)C(=O)O)C(=O)N[C@@H](CCC(=O)O)C(=O)N[C@@H]([C@@H](C)O)C(=O)N[C@@H](C)C(=O)N[C@@H]([C@@H](C)O)C(=O)N1)[C@@H](C)O [Compound 128, [19CD]-isoGlu-RC()ETATC()ATQRLAEFLHRSSSSF-Gly(Me)-A-Ile(Me)-LSSTEVGSETP-NH2] ({C20 diacid-γGlu}-RCETATCATQRLAEFLHRSSSSF[Sar]A[NMeI]LSSTEVGSETP-NH2; disulfide 2-7)	–	–
